Source: patent US20050175550A1, “Compositions for oral use” (priority 2000, published 2005)
≈ marks a conversion by molar mass, not a printed value.

Columns and labels:
Assay in all cases: MIC by agar plate dilution method on standard strains (Example 3)
Assay type in all cases: cell-based
Conditions in all cases: read-out: MIC
[1] = tested on: Staphylococcus epidermidis ATCC12228
Protocol: (§1) Minimum growth-inhibiting concentrations of trifluoromethionine and other antibacterial drugs on standard strains were determined by an agar plate dilution method according to the standard method of Japanese Society of Chemotherapy.
(§2) Drug solutions at a concentration 10 times as high as the maximum applicable concentration were prepared as original solutions of test drugs given in Table 2 (as to solvents used for this purpose, reference should be made also to Table 2). Serial two-fold dilution series of the original solutions were prepared at desired stages, and 1 ml each of the diluted drug solutions was added to 9 ml of media given in Table 3 to prepare drug plates. Concentration range of the individual drugs used are as follows: trifluoromethionine: 400-0.025 μg/ml (15 stages), tetracycline: 100-0.025 μg/ml (13 stages), and clarithromycin: 100-0.025 μg/ml (13 stages).
(§3) • 1) Bacterial solutions stocked at −80° C. were inoculated on agar media (as to media used, reference should be made to Table 3), and then incubated at 37° C. overnight. When desired, subculturing was conducted once more on the same agar media (by overnight incubation at 37° C.). • 2) Colonies growing on the agar media were sampled by a platinum loop, suspended in liquid media (reference should be made to Table 3) and statically incubated at 37° C. for 18 hours (preculturing). • 3) Preculturing was continued up to McFarland 0.5 (McFarland 0.5=about 10^8 CFU/ml), and then the culture broths were diluted with Muellar Hinton Broth to make 10^6 CFU/ml. 5 μl each of the diluted solutions were inoculated on the above-mentioned drug plates by an inoculator Microplanter.
(§4) Thus, bacterial solutions at about 10^8 CFU/ml can be easily prepared by use of McFarland 0.5. Bacterial solutions at such a turbidity are commercially available, but can be easily prepared. McFarland 0.5 can be obtained by adding 0.5 ml of an aqueous 0.048 mol/l barium chloride solution to 99.5 ml of 1% v/v (0.18 mol/l) sulfuric acid. • 4) The individual bacteria were incubated at 37° C. for 18-20 hours and then the growth was determined in the same manner as in Example 2 to obtain minimum growth-inhibiting concentrations.

[2] = tested on: Staphylococcus epidermidis ATCC29886
Protocol: as §1, §2, §3, §4

[3] = tested on: Bacillus subtilis ATCC6633
Protocol: as §3, with “Drug solutions at a concentration 10 times as high as the maximum applicable concentration were prepared as original solutions of test drugs given in Table 2 (as to solvents used for this purpose, reference should be made also to Table 2). Serial two-fold dilution series of the original solutions were prepared at desired stages, and 1 ml each of the diluted drug solutions was added to 9 ml of media given in Table 3 to prepare drug plates. […] • 1)” for “• 1)”, “inoculator Microplanter. […] Thus, bacterial solutions at about 10^8 CFU/ml can be easily prepared by use of McFarland 0.5. Bacterial solutions at such a turbidity are commercially available, but can be easily prepared.” for “inoculator Microplanter.”

[4] = tested on: Enterococcus faecalis ATCC29247
Protocol: as §3, with “Drug solutions at a concentration 10 times as high as the maximum applicable concentration were prepared as original solutions of test drugs given in Table 2 (as to solvents used for this purpose, reference should be made also to Table 2). Serial two-fold dilution series of the original solutions were prepared at desired stages, and 1 ml each of the diluted drug solutions was added to 9 ml of media given in Table 3 to prepare drug plates. […] • 1)” for “• 1)”, “inoculator Microplanter. […] Thus, bacterial solutions at about 10^8 CFU/ml can be easily prepared by use of McFarland 0.5. Bacterial solutions at such a turbidity are commercially available, but can be easily prepared.” for “inoculator Microplanter.”

[5] = tested on: Enterococcus faecium ATCC19434
Protocol: as §3, with “Drug solutions at a concentration 10 times as high as the maximum applicable concentration were prepared as original solutions of test drugs given in Table 2 (as to solvents used for this purpose, reference should be made also to Table 2). Serial two-fold dilution series of the original solutions were prepared at desired stages, and 1 ml each of the diluted drug solutions was added to 9 ml of media given in Table 3 to prepare drug plates. […] • 1)” for “• 1)”, “inoculator Microplanter. […] Thus, bacterial solutions at about 10^8 CFU/ml can be easily prepared by use of McFarland 0.5. Bacterial solutions at such a turbidity are commercially available, but can be easily prepared.” for “inoculator Microplanter.”

[6] = tested on: Escherichia coli ATCC25922
Protocol: as §3, with “Drug solutions at a concentration 10 times as high as the maximum applicable concentration were prepared as original solutions of test drugs given in Table 2 (as to solvents used for this purpose, reference should be made also to Table 2). Serial two-fold dilution series of the original solutions were prepared at desired stages, and 1 ml each of the diluted drug solutions was added to 9 ml of media given in Table 3 to prepare drug plates. […] • 1)” for “• 1)”, “inoculator Microplanter. […] Thus, bacterial solutions at about 10^8 CFU/ml can be easily prepared by use of McFarland 0.5. Bacterial solutions at such a turbidity are commercially available, but can be easily prepared.” for “inoculator Microplanter.”

[7] = tested on: Escherichia coli ATCC35218
Protocol: as §3, with “Drug solutions at a concentration 10 times as high as the maximum applicable concentration were prepared as original solutions of test drugs given in Table 2 (as to solvents used for this purpose, reference should be made also to Table 2). Serial two-fold dilution series of the original solutions were prepared at desired stages, and 1 ml each of the diluted drug solutions was added to 9 ml of media given in Table 3 to prepare drug plates. […] • 1)” for “• 1)”, “inoculator Microplanter. […] Thus, bacterial solutions at about 10^8 CFU/ml can be easily prepared by use of McFarland 0.5. Bacterial solutions at such a turbidity are commercially available, but can be easily prepared.” for “inoculator Microplanter.”

[8] = tested on: Haemophilus influenzae ATCC33391
Protocol: as §3, with “Drug solutions at a concentration 10 times as high as the maximum applicable concentration were prepared as original solutions of test drugs given in Table 2 (as to solvents used for this purpose, reference should be made also to Table 2). Serial two-fold dilution series of the original solutions were prepared at desired stages, and 1 ml each of the diluted drug solutions was added to 9 ml of media given in Table 3 to prepare drug plates. […] • 1)” for “• 1)”, “inoculator Microplanter. […] Thus, bacterial solutions at about 10^8 CFU/ml can be easily prepared by use of McFarland 0.5. Bacterial solutions at such a turbidity are commercially available, but can be easily prepared.” for “inoculator Microplanter.”

[9] = tested on: Haemophilus influenzae ATCC33533
Protocol: as §3, with “Drug solutions at a concentration 10 times as high as the maximum applicable concentration were prepared as original solutions of test drugs given in Table 2 (as to solvents used for this purpose, reference should be made also to Table 2). Serial two-fold dilution series of the original solutions were prepared at desired stages, and 1 ml each of the diluted drug solutions was added to 9 ml of media given in Table 3 to prepare drug plates. […] • 1)” for “• 1)”, “inoculator Microplanter. […] Thus, bacterial solutions at about 10^8 CFU/ml can be easily prepared by use of McFarland 0.5. Bacterial solutions at such a turbidity are commercially available, but can be easily prepared.” for “inoculator Microplanter.”

[10] = tested on: Haemophilus influenzae ATCC49247
Protocol: as §3, with “Drug solutions at a concentration 10 times as high as the maximum applicable concentration were prepared as original solutions of test drugs given in Table 2 (as to solvents used for this purpose, reference should be made also to Table 2). Serial two-fold dilution series of the original solutions were prepared at desired stages, and 1 ml each of the diluted drug solutions was added to 9 ml of media given in Table 3 to prepare drug plates. […] • 1)” for “• 1)”, “inoculator Microplanter. […] Thus, bacterial solutions at about 10^8 CFU/ml can be easily prepared by use of McFarland 0.5. Bacterial solutions at such a turbidity are commercially available, but can be easily prepared.” for “inoculator Microplanter.”

[11] = tested on: Haemophilus influenzae ATCC49766
Protocol: as §3, with “Drug solutions at a concentration 10 times as high as the maximum applicable concentration were prepared as original solutions of test drugs given in Table 2 (as to solvents used for this purpose, reference should be made also to Table 2). Serial two-fold dilution series of the original solutions were prepared at desired stages, and 1 ml each of the diluted drug solutions was added to 9 ml of media given in Table 3 to prepare drug plates. […] • 1)” for “• 1)”, “inoculator Microplanter. […] Thus, bacterial solutions at about 10^8 CFU/ml can be easily prepared by use of McFarland 0.5. Bacterial solutions at such a turbidity are commercially available, but can be easily prepared.” for “inoculator Microplanter.”

[12] = tested on: Klebsiella pneumoniae ATCC700603
Protocol: as §3, with “Drug solutions at a concentration 10 times as high as the maximum applicable concentration were prepared as original solutions of test drugs given in Table 2 (as to solvents used for this purpose, reference should be made also to Table 2). Serial two-fold dilution series of the original solutions were prepared at desired stages, and 1 ml each of the diluted drug solutions was added to 9 ml of media given in Table 3 to prepare drug plates. […] • 1)” for “• 1)”, “inoculator Microplanter. […] Thus, bacterial solutions at about 10^8 CFU/ml can be easily prepared by use of McFarland 0.5. Bacterial solutions at such a turbidity are commercially available, but can be easily prepared.” for “inoculator Microplanter.”

[13] = tested on: Micrococcus luteus ATCC9341
Protocol: as §3, with “Drug solutions at a concentration 10 times as high as the maximum applicable concentration were prepared as original solutions of test drugs given in Table 2 (as to solvents used for this purpose, reference should be made also to Table 2). Serial two-fold dilution series of the original solutions were prepared at desired stages, and 1 ml each of the diluted drug solutions was added to 9 ml of media given in Table 3 to prepare drug plates. […] • 1)” for “• 1)”, “inoculator Microplanter. […] Thus, bacterial solutions at about 10^8 CFU/ml can be easily prepared by use of McFarland 0.5. Bacterial solutions at such a turbidity are commercially available, but can be easily prepared.” for “inoculator Microplanter.”

[14] = tested on: Moraxella (Branhamella) catarrhalis ATCC25238
Protocol: as §3, with “Drug solutions at a concentration 10 times as high as the maximum applicable concentration were prepared as original solutions of test drugs given in Table 2 (as to solvents used for this purpose, reference should be made also to Table 2). Serial two-fold dilution series of the original solutions were prepared at desired stages, and 1 ml each of the diluted drug solutions was added to 9 ml of media given in Table 3 to prepare drug plates. […] • 1)” for “• 1)”, “inoculator Microplanter. […] Thus, bacterial solutions at about 10^8 CFU/ml can be easily prepared by use of McFarland 0.5. Bacterial solutions at such a turbidity are commercially available, but can be easily prepared.” for “inoculator Microplanter.”

CN(C)[C@@H]1C(O)=C(C(N)=O)C(=O)[C@@]2(O)C(O)=C3C(=O)c4c(O)cccc4[C@@](C)(O)[C@H]3C[C@@H]12 [TC, Tetracycline]
MIC [1]: 50 mg/L (≈ 113 µM) | MIC [2]: 0.39 mg/L (≈ 0.878 µM) | MIC [3]: 0.2 mg/L (≈ 0.45 µM) | MIC [4]: 25 mg/L (≈ 56.3 µM) | MIC [5]: 0.2 mg/L (≈ 0.45 µM) | MIC [6]: 1.56 mg/L (≈ 3.51 µM) | MIC [7]: 1.56 mg/L (≈ 3.51 µM) | MIC [8]: 0.78 mg/L (≈ 1.76 µM) | MIC [9]: 0.39 mg/L (≈ 0.878 µM) | MIC [10]: 25 mg/L (≈ 56.3 µM) | MIC [11]: 0.78 mg/L (≈ 1.76 µM) | MIC [12]: 50 mg/L (≈ 113 µM) | MIC [13]: 0.78 mg/L (≈ 1.76 µM) | MIC [14]: 0.2 mg/L (≈ 0.45 µM)
